The text below walks through data of patent publication US10294236B2, “Compounds as rearranged during transfection (RET) inhibitors” (GLAXOSMITHKLINE INTELLECTUAL PROPERTY DEVELOPMENT LIMITED, priority 2014, dated 2019).

A word on the IC50: it is the concentration needed to halve the response being measured. Read a high IC50 as weaker potency in that assay.

Where a name gives a salt, the structure may show the parent alone.

This assay has as its target T1, Human RET kinase cytoplasmic domain (Homo sapiens, UniProt P07949).
T1 construct: made in house
T1 sequence (P07949 658-1114): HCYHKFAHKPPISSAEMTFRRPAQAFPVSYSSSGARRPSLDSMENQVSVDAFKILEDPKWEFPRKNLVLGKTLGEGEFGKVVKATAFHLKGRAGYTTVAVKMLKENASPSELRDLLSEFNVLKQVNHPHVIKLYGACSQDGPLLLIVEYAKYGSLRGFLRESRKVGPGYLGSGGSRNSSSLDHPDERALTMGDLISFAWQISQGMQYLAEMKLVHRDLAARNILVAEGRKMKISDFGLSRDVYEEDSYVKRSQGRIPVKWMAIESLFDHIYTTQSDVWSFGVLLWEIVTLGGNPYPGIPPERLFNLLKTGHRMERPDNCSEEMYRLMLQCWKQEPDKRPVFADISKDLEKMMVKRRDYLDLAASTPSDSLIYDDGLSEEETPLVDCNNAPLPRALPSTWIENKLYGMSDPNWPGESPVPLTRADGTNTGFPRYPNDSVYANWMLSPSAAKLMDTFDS
In words: RET kinase enzymatic assay. The format is biochemical. As to the method:
GST-RET was purified using glutathione sepharose chromatography. The RET kinase enzymatic assay was performed in a total volume of 10 uL with increasing concentrations of RET kinase inhibitor as a singlet in a 384 well format as follows: RET inhibitor compound plates are prepared by adding 100 nL of RET inhibitor at different concentrations to a 384-well plate. 5 μL/well of a 2× enzyme mix (50 mM HEPES (4-(2-hydroxyethyl)-1-piperazineethanesulfonic acid); 1 mM CHAPS (3-[(3-cholamidopropyl)dimethylammonio]-1-propanesulfonate); 0.1 mg/mL BSA (bovine serum albumin); 1 mM DTT (dithiothreitol); 0.2 nM RET kinase) was added to the 384-well plate and incubated for 30 minutes at 23° C. 5 µL/well of a 2× substrate mix (50 mM HEPES; 1 mM CHAPS; 0.1 mg/mL BSA; 20 μM adenosine triphosphate; 20 mM MgCl2 and 1 μM biotinylated peptide substrate) was added and incubated for 1 hour at 23° C. […] IC50s were fitted using GraphPad Prism to a sigmoidal dose response.

In turn, `CCOc1cc(-c2ncc(NC(=O)Nc3ccc(C#N)c(C(F)(F)F)c3)c(C)n2)c[nH]c1=O` [Example 43, 1-(4-Cyano-3-(trifluoromethyl)phenyl)-3-(2-(5-ethoxy-6-oxo-1,6-dihydropyridin-3-yl)-4-methylpyrimidin-5-yl)urea] yielded an IC50 of less than 100 nM.

`CCOc1cc(=O)[nH]cc1-c1ncc(NC(=O)Nc2ccc(C#N)c(C(F)(F)F)c2)c(C)n1` [Example 44, 1-(4-Cyano-3-(trifluoromethyl)phenyl)-3-(2-(4-ethoxy-6-oxo-1,6-dihydropyridin-3-yl)-4-methylpyrimidin-5-yl)urea] displayed an IC50 of less than 100 nM.

With `CCOc1cc(-c2ccc(NC(=O)Nc3ccc(CN4CCOCC4)c(C(F)(F)F)c3)c(F)c2)c[nH]c1=O` [Example 45, 1-(4-(5-Ethoxy-6-oxo-1,6-dihydropyridin-3-yl)-2-fluorophenyl)-3-(4-(morpholinomethyl)-3-(trifluoromethyl)phenyl)urea], the IC50 was less than 100 nM.

Consider `CCOc1cc(=O)[nH]cc1-c1ncc(NC(=O)Nc2cc(C(C)(C)C(F)(F)F)on2)c(C)n1` [Example 46, 1-(2-(4-Ethoxy-6-oxo-1,6-dihydropyridin-3-yl)-4-methylpyrimidin-5-yl)-3-(5-(1,1,1-trifluoro-2-methylpropan-2-yl)isoxazol-3-yl)urea], for which the IC50 was less than 100 nM.

As for `CCOc1cc(=O)[nH]cc1-c1ncc(NC(=O)Nc2ccc(CC(C)(C)CO)c(C(F)(F)F)c2)c(C)n1` [Example 47, 1-(2-(4-Ethoxy-6-oxo-1,6-dihydropyridin-3-yl)-4-methylpyrimidin-5-yl)-3-(4-(3-hydroxy-2,2-dimethylpropyl)-3-(trifluoromethyl)phenyl)urea], the IC50 is less than 100 nM.

In the case of `CCOc1cc(-c2ncc(NC(=O)Nc3ccc(CC(C)(C)CO)c(C(F)(F)F)c3)c(C)n2)c[nH]c1=O` [Example 48, 1-(2-(5-Ethoxy-6-oxo-1,6-dihydropyridin-3-yl)-4-methylpyrimidin-5-yl)-3-(4-(3-hydroxy-2,2-dimethylpropyl)-3-(trifluoromethyl)phenyl)urea], the IC50 is less than 100 nM.

As for `CCOc1cc(Oc2ccc(NC(=O)Nc3ccc(OC4(C)COC4)c(C(F)(F)F)c3)cc2)c[nH]c1=O` [Example 49, 1-(4-((5-Ethoxy-6-oxo-1,6-dihydropyridin-3-yl)oxy)phenyl)-3-(4-((3-methyloxetan-3-yl)oxy)-3-(trifluoromethyl)phenyl)urea], the IC50 was less than 100 nM.

On to `CCOc1cc(-c2ccc(NC(=O)Nc3ccc(OC4(C)COC4)c(C(F)(F)F)c3)c(C)n2)c[nH]c1=O` [Example 50, 1-(5′-Ethoxy-6-methyl-6′-oxo-1′,6′-dihydro-[2,3′-bipyridin]-5-yl)-3-(4-((3-methyloxetan-3-yl)oxy)-3-(trifluoromethyl)phenyl)urea hydrochloride], for which the IC50 is less than 100 nM.

`CCOc1cc(=O)[nH]cc1-c1ncc(NC(=O)Nc2ccc(C(C)(C)O)c(C(F)(F)F)c2)c(C)n1` [Example 51, 1-(2-(4-Ethoxy-6-oxo-1,6-dihydropyridin-3-yl)-4-methylpyrimidin-5-yl)-3-(4-(2-hydroxypropan-2-yl)-3-(trifluoromethyl)phenyl)urea] showed an IC50 of less than 100 nM.

Compound `CCOc1cc(=O)[nH]cc1-c1ncc(NC(=O)Nc2cc(-n3cnc(C)c3)cc(C(F)(F)F)c2)c(C)n1` [Example 52, 1-(2-(4-Ethoxy-6-oxo-1,6-dihydropyridin-3-yl)-4-methylpyrimidin-5-yl)-3-(3-(4-methyl-1H-imidazol-1-yl)-5-(trifluoromethyl)phenyl)urea] came in with an IC50 of less than 100 nM.

The compound `CCOc1cc(-c2nc(C)c(NC(=O)Nc3cc(-n4cnc(C)c4)cc(C(F)(F)F)c3)c(C)n2)c[nH]c1=O` [Example 53, 1-(2-(5-Ethoxy-6-oxo-1,6-dihydropyridin-3-yl)-4,6-dimethylpyrimidin-5-yl)-3-(3-(4-methyl-1H-imidazol-1-yl)-5-(trifluoromethyl)phenyl)urea] came in with an IC50 of less than 100 nM.
